Test results as given in patent US20200100505A1, “MICROBIAL INSECTICIDE FOR CONTROL OF MULBERRY THRIPS” (FARMHANNONG CO., LTD., priority 2017, published 2020).

System: Western flower thrips
Test: Insecticidal effect against thrips on caged potted tomato crop
Assay type: in vivo
Settings: tomato pot in cage, granules 2 g per pot, clothianidin 0.02 g per pot
Procedure: An experiment on the insecticidal effect against thrips was carried out in a tomato crop. A population of the tomato crop having a height of 20 to 25 cm was used, and the tomato crop was put into a plastic cage (30×30×60 cm^3) equipped with a sieve with mesh smaller than that of Western flower thrips to prevent Western flower thrips from moving from a treatment zone, and an experiment was then performed.
A pot in which a tomato crop was planted, was treated with 2 g of the microbial insecticide granules of the present invention prepared in Example 1. Also, as the comparison group, the tomato crop was treated with an agricultural chemical (i.e., clothianidin) known to show a potent insecticidal effect against thrips at an amount of 0.02 g (i.e., an amount of 3 kg/10 a) per pot, and no insecticide was applied to the pot of the control group.

CN/C(=N\[N+](=O)[O-])NCc1cnc(Cl)s1 [clothianidin]
Thrips density After 20 days (after 20 days): 3.7 ± 0.5 number/plant | Thrips density After 40 days (after 40 days): 2.4 ± 0.4 number/plant
